Experimental data taken from PubChem BioAssay (NCI).
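Where inhibition never reached the appropriate level, the endpoint shown equals the highest concentration tested. Otherwise, values were interpolated linearly from a five-concentration, 48-hour dose response in 96-well plates. GI50: concentration for 50% inhibition of growth. The concentration for full growth arrest is given as TGI.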

Experiments:
Test in all cases: NCI anticancer screen, dose series, 48 h
[1] = system: NCI-H460 lung
[2] = system: SF-539 CNS
[3] = system: MDA-N
[4] = system: OVCAR-8 ovarian
[5] = system: MDA-MB-435
[6] = system: UACC-257 melanoma
[7] = system: SR leukemia
[8] = system: SW-620 colon
[9] = system: MCF7 breast
[10] = system: ACHN renal
[11] = system: U251 CNS

Structure (SMILES) | TGI [1] [µM] | TGI [2] [µM] | TGI [3] [µM] | TGI [4] [µM] | TGI [5] [µM] | TGI [6] [µM] | TGI [7] [µM] | TGI [8] [µM] | TGI [9] [µM] | TGI [10] [µM] | TGI [11] [µM] | GI50 [1] [µM] | GI50 [2] [µM] | GI50 [5] [µM] | GI50 [6] [µM] | GI50 [7] [µM] | GI50 [8] [µM] | GI50 [9] [µM] | GI50 [11] [µM]
COc1cc(C(=O)N(Cc2cccnc2)C(=S)N(Cc2cccnc2)C(=O)c2cc(OC)c(OC)c(OC)c2)cc(OC)c1OC | > 100 | > 100 | > 100 | > 100 | > 100 | > 100 | > 100 | > 100 | 34.9 | > 100 | – | – | – | – | – | – | – | – | –
COC[C@@H](C[C@H]1O[C@@](O)([C@H](O)[C@@H]2C[C@H](OC)[C@@H](O)CC/C=C(C)/C=C/[C@@H](O[C@@H]3O[C@@H](C)[C@H](OC)[C@@H](O)[C@@H]3O)[C@H](C)/C=C(C)/C=C(C)/C=C(\C)C(=O)O2)[C@H](C)[C@@H](O)[C@H]1C)O[C@H]1C[C@](C)(O)[C@@H](O[C@H]2C[C@@H](OC)[C@H](O)[C@@H](C)O2)C(C)O1 (stereo not given in full) | > 100 | > 100 | > 100 | > 100 | > 100 | 26.5 | – | > 100 | > 100 | > 100 | > 100 | – | – | – | – | – | – | – | –
O=C(NI1OC(=O)c2ccccc21)c1ccc(Cl)cc1 | > 100 | > 100 | – | > 100 | > 100 | > 100 | – | > 100 | > 100 | > 100 | > 100 | – | – | – | – | – | – | – | –
Cc1cc(S(=O)(=O)N=C2N(Cc3ccccc3)CCN2Cc2ccccc2)c(S)cc1Cl | > 100 | > 100 | > 100 | > 100 | > 100 | > 100 | > 100 | > 100 | > 100 | – | > 100 | – | – | – | – | – | – | – | –
C=CC(CCc1ccc(C(=O)OCC)cc1)c1c(N)nc(N)[nH]c1=O (stereo not given) | > 100 | > 100 | > 100 | > 100 | > 100 | > 100 | > 100 | > 100 | > 100 | – | > 100 | – | – | – | – | – | – | – | –
O=Cc1ccc2c(c1)CC1(Cc3ccccc3C1)C2 | – | 33.2 | 38.9 | 39 | 37.6 | 44.1 | 18.4 | – | 66.4 | 65.7 | 36.2 | – | – | – | – | – | – | – | –
O=Cc1ccc(OCc2cccc(COc3ccc(/C=N\Nc4ccc([N+](=O)[O-])cc4[N+](=O)[O-])cc3)n2)cc1 | > 100 | – | > 100 | > 100 | > 100 | > 100 | 75.3 | > 100 | > 100 | > 100 | > 100 | – | – | – | – | – | – | – | –
CC1NC(=O)CC(c2ccccc2)N(N=O)C1c1ccccc1 (stereo not given) | > 90.2 | 48.4 | – | > 82.7 | – | > 100 | – | > 31.6 | > 100 | – | > 100 | – | – | – | – | – | – | – | –
NC(Cc1ccccc1)C(=O)N[C@H]1c2ccsc2/C(=N/O)[C@H]1O (stereo not given in full) | > 100 | > 100 | > 100 | > 100 | > 100 | > 100 | > 100 | > 100 | > 100 | – | > 100 | – | – | – | – | – | – | – | –
CNc1ccc(C(=O)CC(O)CCC(C)C2OC(=O)CC(O)CC(=O)CC(O)CC(O)CC(O)CC(O)CC3(O)CC(O)C(C(=O)OC)C(CC(O[C@@H]4O[C@H](C)[C@@H](O)[C@H](N)[C@@H]4O)/C=C/C=C/C=C/C=C/C=C/C=C/C=C/C2C)O3)cc1 (stereo not given in full) | 10.1 | 47.9 | – | – | 6.19 | 3.18 | 5.47 | 40.5 | 19 | – | 56.4 | 2.97 | 13.6 | 2.02 | 1.45 | 2.33 | 5.33 | 3.18 | 3.87
Nc1nc(N)c2ncn(-c3ccc(Cl)cc3)c2n1 | – | 80.5 | > 100 | > 100 | > 100 | > 100 | – | – | > 100 | > 100 | > 100 | – | – | – | – | – | – | – | –
O=C1CCC(c2ccc(Cl)cc2)=NN1c1nsc2ccccc12 | > 100 | > 100 | – | > 100 | – | 68.8 | 54.8 | > 100 | – | > 100 | > 100 | – | – | – | – | – | – | – | –
CCOC(=O)c1cc(C(O)P2(=O)N(CC(C)(C)C)[C@@H]3CCCC[C@H]3N2CC(C)(C)C)cn1C(=O)OC(C)(C)C (stereo not given in full) | – | – | 28 | 47.1 | 27 | 28.7 | 25.6 | 32.6 | 51 | > 100 | 29.4 | – | – | – | – | – | – | – | –
Cc1c(S(=O)(=O)/N=C(\NO)Nc2ccc(Cl)c(Cl)c2)sc2ccc(Cl)cc12 | – | 45.1 | 34.8 | 46.6 | 37.3 | 37.6 | – | > 100 | 86.8 | 25.8 | 49.9 | – | – | – | – | – | – | – | –
Cc1ccc2c(c1)C(C(=O)N[C@@H]1C(=O)N3[C@@H]1SC(C)(C)[C@@H]3C(=O)O)OCCC2 (stereo not given in full) | > 100 | > 100 | – | > 100 | > 100 | > 100 | > 100 | > 100 | > 100 | > 100 | > 100 | – | – | – | – | – | – | – | –
C[C@]12CCC(=O)O[C@H]1CCCCO2 | > 100 | > 100 | > 100 | > 100 | > 100 | > 100 | > 100 | > 100 | > 100 | – | > 100 | – | – | – | – | – | – | – | –
CCCCN1C(=O)N(c2ccc(OCC)cc2)C2N(CCCC)C1C(C)(C)C2(C)C (stereo not given) | > 100 | 41.9 | > 100 | > 100 | 97.3 | > 100 | – | > 100 | 47.5 | > 100 | > 100 | – | – | – | – | – | – | – | –
COc1cc(Cn2c3c(c4cc(O)ccc42)Cc2ccccc2C3=O)cc(OC)c1 | > 100 | > 100 | > 100 | > 100 | > 100 | > 100 | 53.3 | > 100 | 78.6 | – | > 100 | – | – | – | – | – | – | – | –
Cc1ccc(-c2c(C#N)c(-c3ccc(Cl)cc3)c(C#N)c(=O)n2NS(=O)(=O)c2ccc(C)cc2)cc1 | > 100 | 50.1 | > 100 | > 100 | > 100 | > 100 | – | > 100 | 36.5 | > 100 | > 100 | – | – | – | – | – | – | – | –
COc1ccc(C(=C(Cl)c2ccccc2)c2ccc(OC)cc2)cc1 | > 100 | > 100 | > 100 | > 100 | > 100 | > 100 | – | > 100 | > 100 | > 100 | > 100 | – | – | – | – | – | – | – | –
